Measurements: PMC9413440, “An Iterative Approach Guides Discovery of the FabI Inhibitor Fabimycin, a Late-Stage Antibiotic Candidate with In Vivo Efficacy against Drug-Resistant Gram-Negative Infections” (ACS Central Science, 2022)

Legend:
E. coli MG1655 = experiment: Whole-cell accumulation assay (LC-MS/MS); type: cell-based, Escherichia coli
Procedure: II. Materials and Methods for Biological Experiments
S. aureus ATCC 29213 and E. coli MG1655 were obtained from the American Type Culture Collection (ATCC). E. coli BW25113 and E. coli JW5503 were obtained from the Keio Collection. AR-bank strains were obtained from the Centers for Disease Control and Prevention and FDA Antibiotic Resistance Isolate Bank. […]
The accumulation assay4 was performed in triplicate with each batch containing tetracycline as a positive control. E. coli MG1655 was used in these experiments. For each replicate, 2.5 mL of an overnight culture of E. coli was diluted into 250 mL of fresh Luria Bertani (LB) broth (Lennox) and grown at 37 °C with shaking to an optical density (OD600) of 0.55. The bacteria were pelleted at 3220 r.c.f. for 10 min at 4 °C and the supernatant was discarded. The pellets were resuspended in 40 mL of phosphate buffered saline (PBS) and pelleted as before, and the supernatant discarded. […] The number of colony-forming units (CFUs) was determined by a calibration curve. […] Supernatants were analyzed by LC-MS/MS.
Samples were analyzed with the […] LC-MS/MS system (AB Sciex) with a 1200 series HPLC system (Agilent Technologies) including a degasser, an autosampler, and a binary pump. […]
The source temperature was 450 °C. […] Multiple reaction monitoring was used for quantification. […] All compounds evaluated in biological assays were ≥95% pure.

E. coli AR-0055 = experiment: Urinary tract infection model; type: in vivo, mouse; conditions: 33.3 mg/kg IV three times a day, 168 h postinfection
Procedure: Urinary tract infection model
The protocol to assess fabimycin’s efficacy in a urinary tract infection was approved by the IACUC (protocol number:
IM011-12282020). In this study specific pathogen-free C3H/HeJ (Tlr4Lps-d) mice that were 7-8 weeks were used and provided with 5% glucose for 6 days prior to infection and for the duration of the experiment.12, 13 On day 0, mice were infected with E. coli AR-0055 (1.38 * 10^9 CFU/mouse, transurethral) while under pentobarbital anesthesia (50 mg/kg, IP). Treatment was initiated 96 hours post-infection with test articles. Fabimycin was formulated in 17% Cremophor EL/3% SBE-β-CD and administered intravenously while the control, colistin, was formulated in 0.9% NaCl and administered subcutaneously. Doses were administered once, twice, or three times daily for 3 consecutive days with animal sacrifice and burden enumeration at 168 hours post-infection. Tissues were collected and pathogen burden evaluated by dilution plating technique on nutrient agar plates.

Row | SMILES | whole-cell accumulation (E. coli MG1655) | log10 reduction in bacterial load relative to the vehicle (E. coli AR-0055; bladder) [log10] | log10 reduction in bacterial load relative to the vehicle (E. coli AR-0055; kidney) [log10] | log10 reduction in bacterial load relative to the vehicle (E. coli AR-0055; liver) [log10] | log10 reduction in bacterial load relative to the vehicle (E. coli AR-0055; spleen) [log10]
1 | Cc1c(CN(C)C(=O)/C=C/c2cnc3c(c2)CCCC(=O)N3)oc2ccccc12 [compound 10] | reduced whole-cell accumulation | – | – | – | –
2 | Cc1c(CN(C)C(=O)/C=C/c2cnc3c(c2)CC[C@H](N)C(=O)N3)oc2ccccc12 [fabimycin] | – | 2.8 | 1.9 | 2.9 | 3.0
